The results in this text go back to US12378224B2 (Dong-A Socio Holdings Co., Ltd., priority 2016, dated 2025).

The test has as its target human MER (528-end) (Homo sapiens (Human), UniProt Q12866). Briefly: HTRF Kinase Activity Biochemical Assay (KinEASE-TK). The settings on record: 10 uM ATP. The gist of the method:
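Activity read-out is the HTRF ratio (665 nm over 620 nm emission, ×10,000; excitation 340 nm) after 1 h detection with 0.375 nM Eu3+-cryptate anti-TK antibody plus 0.062 uM SA-XL665. Preceding kinase step: human MER (528-end), biotinylated TK substrate, 1 h, room temperature.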
Background: In TR-FRET formats the signal depends on donor and acceptor labels being close together.

SMILES strings stand for the structures.

Chain of human MER (528-end) (Q12866 528-999 limits assumed): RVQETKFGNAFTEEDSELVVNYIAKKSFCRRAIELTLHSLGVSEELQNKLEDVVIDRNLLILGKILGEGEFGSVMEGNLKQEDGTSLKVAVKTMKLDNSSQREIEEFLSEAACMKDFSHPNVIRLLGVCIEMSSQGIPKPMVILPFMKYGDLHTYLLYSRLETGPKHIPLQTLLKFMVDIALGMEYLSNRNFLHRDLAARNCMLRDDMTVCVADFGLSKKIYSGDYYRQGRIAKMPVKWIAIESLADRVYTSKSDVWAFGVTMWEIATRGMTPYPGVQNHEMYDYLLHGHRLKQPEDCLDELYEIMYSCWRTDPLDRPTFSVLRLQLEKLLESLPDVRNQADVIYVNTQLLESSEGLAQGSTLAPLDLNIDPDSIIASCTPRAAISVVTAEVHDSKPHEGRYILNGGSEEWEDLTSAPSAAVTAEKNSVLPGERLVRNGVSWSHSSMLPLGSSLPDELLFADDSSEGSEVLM

One may read the IC50 as the midpoint of a concentration-inhibition curve. A lower IC50 goes with higher potency. `Cn1cc(-c2cnc(N)c(C(=O)N[C@@H]3CCN(Cc4cccc(-c5ccc(CO)cc5)c4)C3)c2)cn1` [Example 244, (R)-2-amino-N-(1-((4′-(hydroxymethyl)-[1,1′-biphenyl]-3-yl)methyl)pyrrolidin-3-yl)-5-(1-methyl-1H-pyrazol-4-yl)nicotinamide] showed an IC50 of 100 to 1000 nM.

The compound `CN1CCN(Cc2cccc(-c3cccc(CN4CC[C@@H](NC(=O)c5cc(-c6cnn(C)c6)cnc5N)C4)c3)c2)CC1` [Example 245, (R)-2-amino-5-(1-methyl-1H-pyrazol-4-yl)-N-(1-((3′-((4-methylpiperazin-1-yl)methyl)-[1,1′-biphenyl]-3-yl)methyl)pyrrolidin-3-yl)nicotinamide] displayed an IC50 of over 1000 nM.

`CN1CCN(Cc2ccc(-c3cccc(CN4CC[C@@H](NC(=O)c5cc(-c6cnn(C)c6)cnc5N)C4)c3)cc2)CC1` [Example 246, (R)-2-amino-5-(1-methyl-1H-pyrazol-4-yl)-N-(1-((4′-((4-methylpiperazin-1-yl)methyl)-[1,1′-biphenyl]-3-yl)methyl)pyrrolidin-3-yl)nicotinamide]: the IC50 was over 1000 nM.

`Cn1cc(-c2cnc(N)c(C(=O)N[C@@H]3CCN(Cc4ccc(F)c(-c5cccc(CO)c5)c4)C3)c2)cn1` [Example 250, (R)-2-amino-N-(1-((6-fluoro-3′-(hydroxymethyl)-[1,1′-biphenyl]-3-yl)methyl)pyrrolidin-3-yl)-5-(1-methyl-1H-pyrazol-4-yl)nicotinamide] had an IC50 of 100 to 1000 nM.

The compound `Cn1cc(-c2cnc(N)c(C(=O)N[C@@H]3CCN(C(=O)Nc4cccc(-c5cccc(CN)c5)c4)C3)c2)cn1` [Example 254, (R)-2-amino-N-(1-((3′-(aminomethyl)-[1,1′-biphenyl]-3-yl)carbamoyl)pyrrolidin-3-yl)-5-(1-methyl-1H-pyrazol-4-yl)nicotinamide] registered a concentration for half-maximal inhibition (IC50) of 10 to 100 nM.

In turn, `Cn1cc(-c2cnc(N)c(C(=O)N[C@@H]3CCN(C(=O)Nc4cccc(-c5ccc(CN)cc5)c4)C3)c2)cn1` [Example 255, (R)-2-amino-N-(1-((4′-(aminomethyl)-[1,1′-biphenyl]-3-yl)carbamoyl)pyrrolidin-3-yl)-5-(1-methyl-1H-pyrazol-4-yl)nicotinamide] came in with an IC50 of 100 to 1000 nM.

Consider `Nc1ncc(-c2ccc(CO)cc2)cc1C(=O)N[C@@H]1CCN(C(=O)Nc2cccc(-c3ccccc3)c2)C1` [Example 256, (R)—N-(1-([1,1′-biphenyl]-3-ylcarbamoyl)pyrrolidin-3-yl)-2-amino-5-(4-(hydroxymethyl)phenyl)nicotinamide], for which the IC50 lay within 100 to 1000 nM.

`Cn1cc(-c2cnc(N)c(C(=O)N[C@@H]3CCN(C(=O)Nc4cccc(-c5cccc(N)c5)c4)C3)c2)cn1` [Example 257, (R)-2-amino-N-(1-((3′-amino-[1,1′-biphenyl]-3-yl)carbamoyl)pyrrolidin-3-yl)-5-(1-methyl-1H-pyrazol-4-yl)nicotinamide]: the IC50 was 100 to 1000 nM.

`Cn1cc(-c2cnc(N)c(C(=O)N[C@@H]3CCN(C(=O)Nc4cccc(-c5ccc(N)cc5)c4)C3)c2)cn1` [Example 258, (R)-2-amino-N-(1-((4′-amino-[1,1′-biphenyl]-3-yl)carbamoyl)pyrrolidin-3-yl)-5-(1-methyl-1H-pyrazol-4-yl)nicotinamide] showed an IC50 of 100 to 1000 nM.

With `Cn1cc(-c2cnc(N)c(C(=O)N[C@@H]3CCN(C(=O)Nc4cccc(-c5ccc(CO)cc5)c4)C3)c2)cn1` [Example 259, (R)-2-amino-N-(1-((4′-(hydroxymethyl)-[1,1′-biphenyl]-3-yl)carbamoyl)pyrrolidin-3-yl)-5-(1-methyl-1H-pyrazol-4-yl)nicotinamide], the IC50 is 100 to 1000 nM.

For the compound `Cn1cc(-c2cnc(N)c(C(=O)N[C@@H]3CCN(C(=O)Nc4cccc(-c5cnn(C6CCNCC6)c5)c4)C3)c2)cn1` [Example 260, (R)-2-amino-5-(1-methyl-1H-pyrazol-4-yl)-N-(1-((3-(1-(piperidin-4-yl)-1H-pyrazol-4-yl)phenyl)carbamoyl)pyrrolidin-3-yl)nicotinamide], the IC50 is over 1000 nM.

Turning to `Cn1cc(-c2cnc(N)c(C(=O)N[C@@H]3CCN(C(=O)Nc4cccc(-c5ccc(N6CCNCC6)nc5)c4)C3)c2)cn1` [Example 261, (R)-2-amino-5-(1-methyl-1H-pyrazol-4-yl)-N-(1-((3-(6-(piperazin-1-yl)pyridin-3-yl)phenyl)carbamoyl)pyrrolidin-3-yl)nicotinamide], the IC50 fell in the range of 100 to 1000 nM.

Turning to `CNc1ccc(-c2cccc(NC(=O)N3CC[C@@H](NC(=O)c4cc(-c5cnn(C)c5)cnc4N)C3)c2)cc1` [Example 262, (R)-2-amino-5-(1-methyl-1H-pyrazol-4-yl)-N-(1-((4′-(methylamino)-[1,1′-biphenyl]-3-yl)carbamoyl)pyrrolidin-3-yl)nicotinamide], the IC50 was 100 to 1000 nM.

Turning to `Cn1cc(-c2cnc(N)c(C(=O)N[C@@H]3CCN(C(=O)Nc4cccc(-c5cccc(CO)c5)c4)C3)c2)cn1` [Example 264, (R)-2-amino-N-(1-((3′-(hydroxymethyl)-[1,1′-biphenyl]-3-yl)carbamoyl)pyrrolidin-3-yl)-5-(1-methyl-1H-pyrazol-4-yl)nicotinamide], the IC50 lay within 100 to 1000 nM.

Compound `CN(C)Cc1cccc(-c2cccc(NC(=O)N3CC[C@@H](NC(=O)c4cc(-c5cnn(C)c5)cnc4N)C3)c2)c1` [Example 265, (R)-2-amino-N-(1-((3′-((dimethylamino)methyl)-[1,1′-biphenyl]-3-yl)carbamoyl)pyrrolidin-3-yl)-5-(1-methyl-1H-pyrazol-4-yl)nicotinamide] gave an IC50 of 10 to 100 nM.

On to `CN1CCN(Cc2cccc(-c3cccc(NC(=O)N4CC[C@@H](NC(=O)c5cc(-c6cnn(C)c6)cnc5N)C4)c3)c2)CC1` [Example 267, (R)-2-amino-5-(1-methyl-1H-pyrazol-4-yl)-N-(1-((3′-((4-methylpiperazin-1-yl)methyl)-[1,1′-biphenyl]-3-yl)carbamoyl)pyrrolidin-3-yl)nicotinamide], for which the IC50 is over 1000 nM.

On to `CN1CCN(Cc2ccc(-c3cccc(NC(=O)N4CC[C@@H](NC(=O)c5cc(-c6cnn(C)c6)cnc5N)C4)c3)cc2)CC1` [Example 268, (R)-2-amino-5-(1-methyl-1H-pyrazol-4-yl)-N-(1-((4′-((4-methylpiperazin-1-yl)methyl)-[1,1′-biphenyl]-3-yl)carbamoyl)pyrrolidin-3-yl)nicotinamide], for which the IC50 lay within 10 to 100 nM.

For `Cn1cc(-c2cnc(N)c(C(=O)N[C@@H]3CCN(C(=O)Nc4ccc(-c5ccc(CN)cc5)cc4)C3)c2)cn1` [Example 270, (R)-2-amino-N-(1-((4′-(aminomethyl)-[1,1′-biphenyl]-4-yl)carbamoyl)pyrrolidin-3-yl)-5-(1-methyl-1H-pyrazol-4-yl)nicotinamide], the IC50 is over 1000 nM.

With `Cn1cc(-c2cnc(N)c(C(=O)N[C@@H]3CCN(C(=O)Nc4ccc(-c5ccccc5)cc4)C3)c2)cn1` [Example 271, (R)—N -(1-([1,1′-biphenyl]-4-ylcarbamoyl)pyrrolidin-3-yl)-2-amino-5-(1-methyl-1H-pyrazol-4-yl)nicotinamide], the IC50 was in the range of 100 to 1000 nM.

Consider `CN1CCN(Cc2ccc(-c3cccc(NC(=S)N4CC[C@@H](NC(=O)c5cc(-c6cnn(C)c6)cnc5N)C4)c3)cc2)CC1` [Example 274, (R)-2-amino-5-(1-methyl-1H-pyrazol-4-yl)-N-(1-((4′-((4-methylpiperazin-1-yl)methyl)-[1,1′-biphenyl]-3-yl)carbamothioyl)pyrrolidin-3-yl)nicotinamide], for which the IC50 lay within 10 to 100 nM.

As for `CN1CCN(Cc2ccc(-c3cccc(OC(=O)N4CC[C@@H](NC(=O)c5cc(-c6cnn(C)c6)cnc5N)C4)c3)cc2)CC1` [Example 275, 4′-((4-methylpiperazin-1-yl)methyl)-[1,1′-biphenyl]-3-yl (R)-3-(2-amino-5-(1-methyl-1H-pyrazol-4-yl)nicotinamido)pyrrolidine-1-carboxylate], the IC50 is 100 to 1000 nM.

Take `Cn1cc(-c2cnc(N)c(C(=O)N[C@@H]3CCN(C(=O)Oc4cccc(-c5ccc(C(=O)O)cc5)c4)C3)c2)cn1` [Example 278, (R)-3′-((3-(2-amino-5-(1-methyl-1H-pyrazol-4-yl)nicotinamido)pyrrolidine-1-carbonyl)oxy)-[1,1′-biphenyl]-4-carboxylic acid]: the IC50 is over 1000 nM.

For the compound `Cn1cc(-c2cnc(N)c(C(=O)N[C@@H]3CCN(C(=O)Oc4cccc(-c5ccc(O)cc5)c4)C3)c2)cn1` [Example 279, 4′-hydroxy-[1,1′-biphenyl]-3-yl (R)-3-(2-amino-5-(1-methyl-1H-pyrazol-4-yl)nicotinamido)pyrrolidine-1-carboxylate], the IC50 lay in the range of 100 to 1000 nM.

`Cn1cc(-c2cnc(N)c(C(=O)N[C@@H]3CCN(C(=O)Oc4cccc(-c5ccc(CO)cc5)c4)C3)c2)cn1` [Example 280, 4′-(hydroxymethyl)-[1,1′-biphenyl]-3-yl (R)-3-(2-amino-5-(1-methyl-1H-pyrazol-4-yl)nicotinamido)pyrrolidine-1-carboxylate] registered an IC50 of 100 to 1000 nM.

For `Cn1cc(-c2cnc(N)c(C(=O)N[C@@H]3CCN(C(=O)Oc4cccc(-c5cnn(CCO)c5)c4)C3)c2)cn1` [Example 284, 3-(1-(2-hydroxyethyl)-1H-pyrazol-4-yl)phenyl (R)-3-(2-amino-5-(1-methyl-1H-pyrazol-4-yl)nicotinamido)pyrrolidine-1-carboxylate], the IC50 was over 1000 nM.

`Cn1cc(-c2cnc(N)c(C(=O)N[C@@H]3CCN(C(=O)Oc4cccc(-c5cnn(CCN6CCOCC6)c5)c4)C3)c2)cn1` [Example 287, 3-(1-(2-morpholinoethyl)-1H-pyrazol-4-yl)phenyl (R)-3-(2-amino-5-(1-methyl-1H-pyrazol-4-yl)nicotinamido)pyrrolidine-1-carboxylate] displayed an IC50 of over 1000 nM.

`CN1CCN(CCn2cc(-c3cccc(OC(=O)N4CC[C@@H](NC(=O)c5cc(-c6cnn(C)c6)cnc5N)C4)c3)cn2)CC1` [Example 288, 3-(1-(2-(4-methylpiperazin-1-yl)ethyl)-1H-pyrazol-4-yl)phenyl (R)-3-(2-amino-5-(1-methyl-1H-pyrazol-4-yl)nicotinamido)pyrrolidine-1-carboxylate] had an IC50 of over 1000 nM.
